Test results from ChEMBL document CHEMBL1152332, “Calothrixins, a new class of human DNA topoisomerase I poisons” (J Nat Prod, 2009).
pIC50: −log10 of the molar value. Calls of active or inactive are those of the source. The calls are words filed in the database; no cut-off is given here.

Tests used:
[1] = test system: CCRF-CEM; assay: Cell cycle arrest in human CCRF-CEM cells assessed as accumulation at G0 phase at 1 uM treated for 3 hrs followed by drug washout and 15 hrs incubation in drug free medium by flow cytometry; assay type: functional
[2] = test system: CCRF-CEM; assay: Cell cycle arrest in human CCRF-CEM cells assessed as accumulation at S phase at 1 uM treated for 3 hrs followed by drug washout and 15 hrs incubation in drug free medium by flow cytometry; assay type: functional
[3] = test system: CCRF-CEM; assay: Cell cycle arrest in human CCRF-CEM cells assessed as accumulation at G2/M phase at 1 uM treated for 3 hrs followed by drug washout and 15 hrs incubation in drug free medium by flow cytometry; assay type: functional
[4] = test system: CCRF-CEM; assay: Cell cycle arrest in human CCRF-CEM cells assessed as accumulation at subG1 phase at 1 uM treated for 3 hrs measured for 15 hrs after nocodazole treatment by flow cytometry in presence of mitotic inhibitor nocodazole; assay type: functional
[5] = test system: CCRF-CEM; assay: Cell cycle arrest in human CCRF-CEM cells assessed as accumulation at S phase at 1 uM treated for 3 hrs measured for 15 hrs after nocodazole treatment by flow cytometry in presence of mitotic inhibitor nocodazole; assay type: functional
[6] = test system: CCRF-CEM; assay: Cell cycle arrest in human CCRF-CEM cells assessed as accumulation at subG1 phase at 1 uM treated for 3 hrs followed by drug washout and 15 hrs incubation in drug free medium by flow cytometry; assay type: functional
[7] = test system: CCRF-CEM; assay: Cytotoxicity against p38-proficient human CCRF-CEM cells after 3 days by MTT assay; assay type: functional, cell-based; details: 72 h
[8] = test system: CCRF-CEM; assay: Cell cycle arrest in human CCRF-CEM cells assessed as accumulation at G0 phase at 1 uM treated for 3 hrs measured for 15 hrs after nocodazole treatment by flow cytometry in presence of mitotic inhibitor nocodazole; assay type: functional
[9] = test system: CCRF-CEM; assay: Cell cycle arrest in human CCRF-CEM cells assessed as accumulation at G2/M phase at 1 uM treated for 3 hrs measured for 15 hrs after nocodazole treatment by flow cytometry in presence of mitotic inhibitor nocodazole; assay type: functional
[10] = biological target: T1, DNA topoisomerase 1 (Homo sapiens) (UniProt P11387); assay: Reversal of drug-stabilized human DNA topoisomerase 1-DNA binary complex at 5 uM within 5 mins by polyacrylamide gel electrophoresis in presence of 0.35 M NaCl
T1 sequence (whole entry): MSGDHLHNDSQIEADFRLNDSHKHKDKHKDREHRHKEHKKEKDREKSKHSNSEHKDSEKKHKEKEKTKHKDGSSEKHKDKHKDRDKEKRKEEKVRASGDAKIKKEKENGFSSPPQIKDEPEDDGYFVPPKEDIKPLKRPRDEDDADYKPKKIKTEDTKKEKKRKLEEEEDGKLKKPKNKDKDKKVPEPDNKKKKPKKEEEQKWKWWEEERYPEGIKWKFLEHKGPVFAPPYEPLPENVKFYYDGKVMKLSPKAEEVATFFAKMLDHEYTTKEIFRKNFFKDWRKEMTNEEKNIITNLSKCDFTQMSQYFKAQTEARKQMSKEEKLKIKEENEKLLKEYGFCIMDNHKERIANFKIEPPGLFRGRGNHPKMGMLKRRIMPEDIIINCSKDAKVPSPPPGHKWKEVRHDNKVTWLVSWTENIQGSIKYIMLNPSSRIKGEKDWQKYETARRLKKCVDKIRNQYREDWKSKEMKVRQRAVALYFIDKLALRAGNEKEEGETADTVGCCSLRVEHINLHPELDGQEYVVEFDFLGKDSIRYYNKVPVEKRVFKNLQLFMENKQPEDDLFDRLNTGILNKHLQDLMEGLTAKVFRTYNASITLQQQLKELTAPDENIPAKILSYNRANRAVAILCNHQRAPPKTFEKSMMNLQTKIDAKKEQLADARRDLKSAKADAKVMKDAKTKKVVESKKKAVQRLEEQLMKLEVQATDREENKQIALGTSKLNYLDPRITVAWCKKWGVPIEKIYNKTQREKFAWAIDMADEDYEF

[11] = biological target: T1, DNA topoisomerase 1 (Homo sapiens); assay: Induction of human DNA topoisomerase 1-mediated DNA cleavage at 1 to 10 uM by polyacrylamide gel electrophoresis
[12] = test system: CCRF-CEM; assay: Cell cycle arrest in human CCRF-CEM cells assessed as accumulation at G2/M phase at 0.1 uM treated for 3 hrs followed by drug washout and 15 hrs incubation in drug free medium by flow cytometry; assay type: functional
[13] = test system: CCRF-CEM; assay: Cell cycle arrest in human CCRF-CEM cells assessed as accumulation at G0 phase at 0.1 uM treated for 3 hrs measured for 15 hrs after nocodazole treatment by flow cytometry in presence of mitotic inhibitor nocodazole; assay type: functional
[14] = test system: CCRF-CEM; assay: Cell cycle arrest in human CCRF-CEM cells assessed as accumulation at G2/M phase at 0.1 uM treated for 3 hrs measured for 15 hrs after nocodazole treatment by flow cytometry in presence of mitotic inhibitor nocodazole; assay type: functional
[15] = test system: CCRF-CEM; assay: Cell cycle arrest in human CCRF-CEM cells assessed as accumulation at G0 phase at 0.1 uM treated for 3 hrs followed by drug washout and 15 hrs incubation in drug free medium by flow cytometry; assay type: functional
[16] = test system: CCRF-CEM; assay: Cell cycle arrest in human CCRF-CEM cells assessed as accumulation at S phase at 10 uM treated for 3 hrs measured for 15 hrs after nocodazole treatment by flow cytometry in presence of mitotic inhibitor nocodazole; assay type: functional
[17] = test system: CCRF-CEM; assay: Cell cycle arrest in human CCRF-CEM cells assessed as accumulation at S phase at 10 uM treated for 3 hrs followed by drug washout and 15 hrs incubation in drug free medium by flow cytometry; assay type: functional
[18] = test system: CCRF-CEM; assay: Cell cycle arrest in human CCRF-CEM cells assessed as accumulation at subG1 phase at 0.1 uM treated for 3 hrs measured for 15 hrs after nocodazole treatment by flow cytometry in presence of mitotic inhibitor nocodazole; assay type: functional
[19] = test system: CCRF-CEM; assay: Cell cycle arrest in human CCRF-CEM cells assessed as accumulation at subG1 phase at 10 uM treated for 3 hrs measured for 15 hrs after nocodazole treatment by flow cytometry in presence of mitotic inhibitor nocodazole; assay type: functional
[20] = test system: CCRF-CEM; assay: Cell cycle arrest in human CCRF-CEM cells assessed as accumulation at G2/M phase at 10 uM treated for 3 hrs followed by drug washout and 15 hrs incubation in drug free medium by flow cytometry; assay type: functional
[21] = test system: CCRF-CEM; assay: Cell cycle arrest in human CCRF-CEM cells assessed as accumulation at S phase at 0.1 uM treated for 3 hrs measured for 15 hrs after nocodazole treatment by flow cytometry in presence of mitotic inhibitor nocodazole; assay type: functional
[22] = test system: CCRF-CEM; assay: Cell cycle arrest in human CCRF-CEM cells assessed as accumulation at G0 phase at 10 uM treated for 3 hrs followed by drug washout and 15 hrs incubation in drug free medium by flow cytometry; assay type: functional
[23] = test system: CCRF-CEM; assay: Cell cycle arrest in human CCRF-CEM cells assessed as accumulation at subG1 phase at 10 uM treated for 3 hrs followed by drug washout and 15 hrs incubation in drug free medium by flow cytometry; assay type: functional
[24] = test system: CCRF-CEM; assay: Cell cycle arrest in human CCRF-CEM cells assessed as accumulation at G2/M phase at 10 uM treated for 3 hrs measured for 15 hrs after nocodazole treatment by flow cytometry in presence of mitotic inhibitor nocodazole; assay type: functional
[25] = test system: CCRF-CEM; assay: Cell cycle arrest in human CCRF-CEM cells assessed as accumulation at S phase at 0.1 uM treated for 3 hrs followed by drug washout and 15 hrs incubation in drug free medium by flow cytometry; assay type: functional
[26] = test system: CCRF-CEM; assay: Cell cycle arrest in human CCRF-CEM cells assessed as accumulation at subG1 phase at 0.1 uM treated for 3 hrs followed by drug washout and 15 hrs incubation in drug free medium by flow cytometry; assay type: functional
[27] = test system: CCRF-CEM; assay: Cell cycle arrest in human CCRF-CEM cells assessed as accumulation at G0 phase at 10 uM treated for 3 hrs measured for 15 hrs after nocodazole treatment by flow cytometry in presence of mitotic inhibitor nocodazole; assay type: functional

Row | Activity [10] | Activity [11] | SMILES | Activity [1] | Activity [2] | Activity [3] | Activity [4] | Activity [5] | Activity [6] | pIC50 [7] | Activity [8] | Activity [9] | Activity [12] | Activity [13] | Activity [14] | Activity [15] | Activity [16] | Activity [17] | Activity [18] | Activity [19] | Activity [20] | further results
1 |  |  | CC[C@@]1(O)C(=O)OCc2c1cc1n(c2=O)Cc2cc3ccccc3nc2-1 [CAMPTOTHECIN] | 34.6% | 15.5% | 28.4% | 17.5% | 10.3% | 18% | 7.40 | 23.6% | 21.7% |  |  |  |  |  |  |  |  |  | 
2 | Active | 11% | CO[n+]1cc2c(c3ccccc31)C(=O)c1[nH]c3ccccc3c1C2=O |  |  |  |  |  |  |  |  |  |  |  |  |  |  |  |  |  |  | 
3 | Active | 24% | O=C1c2[nH]c3ccccc3c2C(=O)c2cnc3ccccc3c21 [CALOTHRIXIN B] | 55.6% | 18.2% | 16.5% | 4.6% | 4.8% | 7.9% | 5.98 | 7.4% | 18.8% | 17.3% | 25.3% | 61.5% | 55.6% | 4.6% | 17% | 6.2% | 6.4% | 18.6% | Activity [21]: 4.5%; Activity [22]: 51.4%; Activity [23]: 11.2%; Activity [24]: 18.2%; Activity [25]: 17.6%; Activity [26]: 7.5%; Activity [27]: 7.7%
4 | Active | 18% | O=C1c2c[n+]([O-])c3ccccc3c2C(=O)c2[nH]c3ccccc3c21 [CALOTHRIXIN A] | 47.3% | 15.3% | 19% | 4.2% | 8.7% | 16% | 6.70 | 13.3% | 29.5% | 19.4% | 8.3% | 16.8% | 51.4% | 7.5% | 15.3% | 7.7% | 2.1% | 23.6% | Activity [21]: 4%; Activity [22]: 50.1%; Activity [23]: 9.1%; Activity [24]: 37%; Activity [25]: 17.3%; Activity [26]: 10.3%; Activity [27]: 13%
5 | Active | 11% | C[n+]1cc2c(c3ccccc31)C(=O)c1[nH]c3ccccc3c1C2=O.[I-] [N-METHYLCALOTHRIXIN B] | 51% | 17% | 19.6% | 5.4% | 4.9% | 10.6% | 5.29 | 6.9% | 20.1% | 20.2% | 5.1% | 18.8% | 50.3% | 11.3% | 15.1% | 3.7% | 6.9% | 19% | Activity [21]: 3.2%; Activity [22]: 51.7%; Activity [23]: 11.8%; Activity [24]: 21.7%; Activity [25]: 17.8%; Activity [26]: 9.8%; Activity [27]: 11.6%
